According to patent US8618169B2, “Derivatives of N-phenylanthranilic acid and 2-benzimidazolone as potassium channel and/or neuron activity modulators” (Ramot at Tel-Aviv University Ltd., priority 2002, dated 2013):

Assays:
small DRG neurons = assay: Spiking activity of DRG neurons, current-clamp; format: cell-based, mouse
Protocol: Dorsal root ganglion (DRG) neurons were dissected from 2-4 days-old ICR mice that were decapitated. DRGs were placed in Hank's balanced saline solution (HBSS) and were prepared by enzymatic dissociation. Briefly, cells were incubated for 30 minutes in 5 mg/ml dispase (Sigma), 2 mg/ml collagenase type 1A (Sigma) and 0.1 mg/ml DNase (Invitrogen/Gibco) in calcium and magnesium-free HBSS, and the ganglia were thereafter mechanically triturated with a firepolished glass Pasteur pipette. The ganglia were then centrifuged for 5 minutes at 80×g and resuspended in DMEM supplemented with 2 mM L-glutamine, 16.5 mM NaCO3, 6 g/l glucose, 5 ml penicillin/streptomycin and 10% fetal calf serum. For electrophysiological recording, dissociated neurons were plated on 13 mm glass coverslips previously coated with poly-D-lysine (1 mg/ml) and laminin (10 μg/ml) and were used after 2-6 days in culture.
For current measurements in CHO cells, recordings were performed 40 hours following transfection, using the whole-cell configuration of the patch-clamp technique [Hamill et al., Nature 294: 462-464 (1981)]. Signals were amplified using an Axopatch 200B patch-clamp amplifier (Axon Instruments, Foster City, Calif., USA), sampled at 2 kHz and filtered at 800 Hz via a 4-pole Bessel low pass filter. Data were acquired using pClamp 8.1 software (Axon Instruments, Foster City, Calif., USA) and an Elonex Pentium III computer in conjunction with a DigiData 1322A interface (Axon Instruments, Foster City, Calif., USA). The patch pipettes were pulled from borosilicate glass (Warner Instrument. Corp., Hamden, Conn., USA) with a resistance of 2-5 MΩ and were filled with (in mM): 130 KCl, 1 MgCl2, 5 K2ATP, 5 EGTA, 10 HEPES, adjusted with KOH at pH 7.4 (290 mOsm). The external solution contained (in [mM]): 140 NaCl, 4 KCl, 1.8 CaCl2, 1.2 MgCl2, 11 glucose, 5.5 HEPES, adjusted with NaOH at pH 7.4 (310 mOsm). Series resistances (3-13 MΩ) were compensated (75-90%) and periodically monitored. […]

[1] = test system: hippocampal pyramidal neurons; assay: Spontaneous EPSCs of hippocampal pyramidal neuron cultures, voltage-clamp; format: cell-based
Protocol: To further determine the synaptic site of M-channel activation by Compound 6, its effects on spontaneous excitatory postsynaptic currents (EPSCs) that could be recorded from dense networks of hippocampal pyramidal neuron cultures was tested.
In FIGS. 30B and 30C, burst activity before (control), in the presence (Compound 6) and after (Wash) application of 5 μM (FIG. 30B) and 10 μM (FIG. 30C) Compound 6, as recorded at the voltage clamp mode is shown. In FIG. 30D, burst activity before (control) and in the presence of 25 μM Linopirdine is shown. In FIG. 30E, the normalized number of bursts appeared in 180 seconds time period for 5 μM (left panel), 10 μM (mid panel) of Compound 6 and 25 μM linopirdine (right panel) are shown. The holding potential was −70 mV. n=5-6.
Thus, using the voltage-clamp configuration of the patch-clamp technique, spontaneous EPSCs were isolated at −70 mV (holding potential) in the presence of 10 μM bicuculline and 10 μM picrotoxin to block GABAA receptor-mediated inhibitory postsynaptic currents. As is shown in FIG. 30A, under control conditions, the frequency of EPSCs is variable depending of the density of the hippocampal culture, ranging from 0.4 Hz to 2 Hz. […] However, the majority of the EPSCs measured at −70 mV under the experimental recording conditions are mediated by AMPA receptors as most of the currents are blocked by 10 μM NBQX, leaving only a small fraction EPSC sensitive to the NMDA receptor blocker DL-AP5 (FIG. 30A).

COX (Cyclooxygenase) = assay: COX activity assay in C-26 cells (PGE2 radioimmunoassay); format: cell-based
Protocol: C-26 cells were plated on 24-well plates using RPMI medium. Different concentrations of the tested compound were added thereto and the cells were incubated for 30 minutes at 37° C. 30 μM exogenic arachidonic acid was then added and incubation was continued for 20 minutes (37° C.), so as to allow the cells to synthesize PGE2. Indomethacin was added thereafter (10 μM), to stop and completely block the activity. Then, the upper solution was removed into clean 24-wells. To the remained cells 100 μl NaOH (1M) were added to induce cytolysis, and the cells were left for later protein measurement. The solution removed to the new 24-well was used for a radioimmunoassay. The COX activity was estimated by calculating the ng PGE2/mg protein parameter.

O=C(Cc1ccccc1Nc1c(Cl)cccc1Cl)NCCOCCO [Compound 6]
effect on trains of evoked spikes (small DRG neurons; 15 μM, 75 pA, 400 ms): potently and reversibly blocked
effect on solitary evoked spike (small DRG neurons; 300 pA, 1 ms pulse): reversibly prevent the generation of the single action potential
frequency of spontaneous EPSCs ([1]; 5 μM, −70 mV holding potential): up to 49±5 % of control
occurrence of spontaneous EPSCs ([1]; ≧10 μM): totally suppresses
COX inhibition activity (in words) (COX (Cyclooxygenase)): do not exhibit COX inhibition activity
IC50 (COX (Cyclooxygenase); C-26 cells): > 30 µM
effect on COX activity (COX (Cyclooxygenase); concentration of up to 10 μM): did not block
